Our source for the IC50 values is patent US20120202787A1, “Novel Heteroaryl Imidazoles And Heteroaryl Triazoles As Gamma-Secretase Modulators” (Pfizer Inc., priority 2009, published 2012).

In the assay the test system is γ-secretase (production of amyloid beta protein Aβ (1-42)). Put plainly: Cell-based γ-secretase assay with ELISA readout (Aβ (1-42) production). Also on record: species or system human WT-APP overexpressing CHO cells. The protocol: Cell-Based γ-Secretase Assay with ELISA Readout
The ability of compounds to modulate production of amyloid beta protein Aβ (1-42) was determined using human WT-APP overexpressing CHO cells. Cells were plated at 22,000 cells/100 μL well in 96 well tissue culture treated, clear plates (Falcon) in DMEM/F12 based medium and incubated for 24 hours at 37° C. Compounds for testing were diluted in 100% DMSO to achieve an eleven points, half log, dose response for IC50 determinations. Compounds were added in fresh medium to achieve 1% final DMSO. Appropriate vehicle and inhibitor controls were added to obtain maximum and minimum inhibition values for the assay before the plates were incubated for about 24 hours at 37° C.
Coating of ELISA assay plates was initiated by addition of 50 μL/well of an in-house Aβ (1-42) specific antibody at (4 μg/mL) in 0.1 M NaHCO3 (pH 9.0) into black 384-well Maxisorp® plates (Nunc) and incubated overnight at 4° C. The capture antibody was then aspirated from the ELISA assay plates and 100 μL/well of Blocking Buffer (Dulbecco's PBS, 1.5% BSA (Sigma A7030)) added. Ambient temperature incubation was allowed to proceed for a minimum of two hours before washing 2×100 μL with Wash Buffer (Dulbecco's PBS, 0.05% Tween 20). Assay Buffer (Dulbecco's PBS, 1.0% BSA (Sigma A7030), 0.05% Tween 20) 20 μL/well was then added.
After incubation overnight at 37° C., 5% CO2, 40 μL (in duplicate) of experimental conditioned media were transferred into wells of the blocked ELISA plates containing the capture antibody, followed by overnight incubation at 4° C. Cell toxicity was measured in the corresponding cells after removal of the media for the Aβ (1-42) assay by a colorimetric cell proliferation assay (CellTiter 96® AQueous One Solution Cell Proliferation Assay, Promega) according to the manufacturer's instructions.
After overnight incubation of the ELISA assay plates at 4° C., unbound Aβ peptides were removed thorough (4×100 μL) washes with Wash Buffer. Europium (Eu) labeled (custom labeled, Perkin Elmer) Aβ (1-16) 6e10 Monoclonal Antibody (Covance #SIG-39320 was added, (50 μL /well Eu-6e10 @ 1:5000, 20 uM EDTA) in Assay Buffer. Incubation at ambient temperature for a minimum of 2 hours was followed by (4×100 μL) washes with Wash Buffer, before 50 μL/well of Delfia Enhancement Solution (Perkin Elmer) was added. Following a one hour ambient temperature incubation, the plates were read on an EnVision plate reader (Perkin Elmer) using standard DELFIA TRF settings. Data analysis including inhibitory IC50 determination was performed using nonlinear regression fit analysis (in-house software) and the appropriate plate mean values for the maximum and minimum inhibition controls.

Where [1] appears, read: Geometric mean of at least 2 determinations, Table 3, read-out: Aβ 42 IC50 (μM)*.
Setting [2] is: human WT-APP overexpressing CHO cells, Aβ (1-42) ELISA, about 24 hours at 37° C., free base or salt, read-out: Aβ 42B IC50 (μM) (Geometric Mean of 2-8 Determinations).

Where two headings read alike, the source gives them in different places.

On to `COc1nc(C(=O)N2CC(COc3cccc4ccccc34)C2)ccc1-n1cnc(C)c1` [Example 48, 2-methoxy-3-(4-methyl-1H-imidazol-1-yl)-6-({3-[(1-naphthyloxy)methyl]azetidin-1-yl}carbonyl) pyridine], for which the IC50 under setting [1] is 0.096 µM. Turning to `COc1nc(C(=O)NC2COc3ccc(C(F)(F)F)c(F)c32)ccc1-n1cnc(C)c1` (stereo not shown) [Example 54, N-[4-fluoro-5-(trifluoromethyl)-2,3-dihydro-1-benzofuran-3-yl]-6-methoxy-5-(4-methyl-1H-imidazol-1-yl)pyridine-2-carboxamide], the IC50 under setting [1] worked out at 0.411 µM. For `COc1nc(C(=O)NCc2cnc(-c3ccccc3)s2)cnc1-n1cnc(C)c1` [Example 16, 6-methoxy-5-(4-methyl-1H-imidazol-1-yl)-N-[(2-phenyl-1,3-thiazol-5-yl)methyl]pyrazine-2-carboxamide], the IC50 under setting [2] turned out to be 1.94 µM. For the compound `COc1nc(C(=O)NCc2ccc(OC(F)(F)F)cc2)cnc1-n1cnc(C)c1` [Example 18, 6-methoxy-5-(4-methyl-1H-imidazol-1-yl)-N-[4-(trifluoromethoxy)benzyl]-pyrazine-2-carboxamide], the IC50 under setting [2] worked out at 5.43 µM.

With `COc1nc(C(=O)NC2COc3cc(C)c(Cl)cc32)ccc1-n1cnc(C)c1` (stereo not shown) [Example 50, N-[5-chloro-6-methyl-2,3-dihydro-1-benzofuran-3-yl]-6-methoxy-5-(4-methyl-1H-imidazol-1-yl)pyridine-2-carboxamide], under setting [1], the IC50 was determined as 0.2 µM.

Regarding `COc1nc(C(=O)NC2COc3ccc(C(F)(F)F)cc32)ccc1-n1cnc(C)c1` (stereo not shown) [Example 56, 6-methoxy-5-(4-methy-1H-imidazol-1-yl)-N-[5-(trifluoromethyl)-2,3-dihydro-1-benzofuran-3-yl]pyridine-2-carboxamide], the IC50 under setting [1] was 0.478 µM. For the compound `COc1nc(C(=O)NCc2ccc(F)c(C3CC3)c2)ccc1-n1cnc(C)c1` [Example 42, N-(3-cyclopropyl-4-fluorobenzyl)-6-methoxy-5-(4-methyl-1H-imidazol-1-yl)pyridine-2-carboxamide], the IC50 under setting [2] was determined as 0.319 µM.

On to `COc1cc(C(=O)NCCc2c[nH]c3ccc(Cl)cc23)ncc1-n1cnc(C)c1` [Example 24, N-[2-(5-chloro-1H-indol-3-yl)ethyl]-4-methoxy-5-(4-methyl-1H-imidazol-1-yl)pyridine-2-carboxamide], for which, under setting [2], the half-inhibitory concentration (IC50) was 18 µM.

In the case of `COc1nc(C(=O)NCCc2nc3ccc(Cl)cc3o2)ccc1-n1cnc(C)c1` [Example 26, N-[2-(6-chloro-1,3-benzoxazol-2-yl)ethyl]-6-methoxy-5-(4-methyl-1H-imidazol-1-yl)pyridine-2-carboxamide], under setting [2], the IC50 was 0.524 µM. For `COc1nc(C(=O)N[C@H]2CCc3ccc(Cl)cc32)ccc1-n1cnc(C)c1` [Example 40, N-[(1S)-6-chloro-2,3-dihydro-1H-inden-1-yl]-6-methoxy-5-(4-methyl-1H-imidazol-1-yl)pyridine-2-carboxamide], the IC50 under setting [2] came to 0.259 µM.

On to `COc1nc(C(=O)NCC2(c3ccc(Cl)cc3)CCCC2)cnc1-n1cnc(C)c1` [Example 14, N-{[1-(4-chlorophenyl)cyclopentyl]methyl}-6-methoxy-5-(4-methyl-1H-imidazol-1-yl)pyrazine-2-carboxamide], for which, under setting [2], the IC50 stood at 1.45 µM.

As to `Cc1cn(-c2ncc(C(=O)NCC3(c4ccc(Cl)cc4)CC3)cc2Cl)cn1` [Example 34, 5-chloro-N-{[1-(4-chlorophenyl)cyclopropyl]methyl}-6-(4-methyl-1H-imidazol-1-yl)nicotinamide], under setting [2], the IC50 came out at 1.37 µM. Same read-out and setting: under `COc1nc(C(=O)NCC2(c3ccc(Cl)cc3)CC2)cnc1-n1cnc(C)c1` [Example 7, N-{[1-(4-Chlorophenyl)cyclopropyl]methyl}-6-methoxy-5-(4-methyl-1H-imidazol-1-yl)pyrazine-2-carboxamide] stands 0.591 µM; under `COc1nc(C(=O)NCC2(c3ccccc3)CCCC2)ccc1-n1cnc(C)c1` [Example 25, 6-methoxy-5-(4-methyl-1H-imidazol-1-yl)-N-[(1-phenylcycloentyl)methyl] pyridine-2-carboxamide], 0.316 µM. The same measure, in the same setting: next, `COc1nc(C(=O)N2CC[C@@H](Oc3ccccc3C(F)(F)F)C2)cnc1-n1cnc(C)c1` [Example 9, 3-methoxy-2-(4-methyl-1H-imidazol-1-yl)-5-({(3R)-3-[2-(trifluoromethyl)-phenoxy]pyrrolidin-1-yl}carbonyl)pyrazine]: 0.643 µM. Consider `COc1nc(C(=O)NCC2(c3ccc(F)cc3)CCC2)cnc1-n1cnc(C)c1` [Example 11, N-{[1-(4-fluorophenyl)-cyclobutyl]methyl}-6-methoxy-5-(4-methyl-1H-imidazol-1-yl)pyrazine-2-carboxamide], for which the IC50 under setting [2] was determined as 1.38 µM.

Regarding `COc1cc(C(=O)N2CC[C@H](Oc3ccccc3C(F)(F)F)C2)ncc1-n1cnc(C)c1` [Example 20, 4-methoxy-5-(4-methyl-1H-imidazol-1-yl)-2-({(3S)-3-[2-(trifluoromethyl)-phenoxy]pyrrolidin-1-yl}carbonyl)pyridine], under setting [2], the IC50 was found to be 5.33 µM.

Turning to `COc1nc(C(=O)NCc2cc(C)ccc2C)ccc1-n1cnc(C)c1` [Example 38, N-(2,5-dimethylbenzyl)-6-methoxy-5-(4-methyl-1H-imidazol-1-yl)pyridine-2-carboxamide], the IC50 under setting [2] amounted to 0.667 µM. On the same count and under the same terms, under `COc1nc(C(=O)NCc2ccc(OC(F)(F)F)cc2)ccc1-n1cnc(C)c1` [Example 31, 6-methoxy-5-(4-methyl-1H-imidazol-1-yl)-N-[4-(trifluoromethoxy)benzyl]-pyridine-2-carboxamide] stands 1.01 µM; under `COc1nc(C(=O)N2CC[C@@H](Oc3ccccc3C(F)(F)F)C2)ccc1-n1cnc(C)c1` [Example 37, 2-methoxy-3-(4-methyl-1H-imidazol-1-yl)-6-({(3R)-3-[2-(trifluoromethyl)-phenoxy]pyrrolidin-1-yl}carbonyl)pyridine], 0.285 µM.

For the compound `COc1nc(C(=O)NCCc2nc3ccc(Cl)cc3o2)cnc1-n1cnc(C)c1` [Example 12, N-[2-(6-chloro-1,3-benzoxazol-2-yl)ethyl]-6-methoxy-5-(4-methyl-1H-imidazol-1-yl)pyrazine-2-carboxamide], the IC50 under setting [2] amounted to 1.43 µM. As to `COc1nc(C(=O)NCC2(c3ccc(F)cc3)CC2)ccc1-n1cnc(C)c1` [Example 5, N-{[1-(4-Fluorophenyl)cyclopropyl]methyl}-6-methoxy-5-(4-methyl-1H-imidazol-1-yl)pyridine-2-carboxamide], the IC50 under setting [2] came to 0.34 µM.

For the compound `COc1cc(C(=O)N2CC[C@@H](Oc3ccccc3C(F)(F)F)C2)cnc1-n1cnc(C)c1` [Example 46, 3-methoxy-2-(4-methyl-1H-imidazol-1-yl)-5-({(3R)-3-[2-(trifluoromethyl)-phenoxy]pyrrolidin-1-yl}carbonyl)pyridine], the IC50 under setting [2] turned out to be 2.3 µM. As to `COc1nc(C(=O)N2CC[C@H](Oc3ccccc3C(F)(F)F)C2)cnc1-n1cnc(C)c1` [Example 8, 3-methoxy-2-(4-methyl-1H-imidazol-1-yl)-5-({(3S)-3-[2-(trifluoromethyl)-phenoxy]pyrrolidin-1-yl}carbonyl)pyrazine], under setting [2], the IC50 is 0.535 µM. As to `COc1nc(C(=O)NC2COc3c(C)cc(Cl)cc32)ccc1-n1cnc(C)c1` (stereo not shown) [Example 52, N-(5-chloro-7-methyl-2,3-dihydro-1-benzofuran-3-yl)-6-methoxy-5-(4-methyl-1H-imidazol-1-yl)pyridine-2-carboxamide], the IC50 under setting [1] amounted to 0.364 µM. As for `COc1nc(C(=O)N[C@H]2COc3ccc(Cl)cc32)ccc1-n1cnc(C)c1` [Example 53, N-[(3R)-5-chloro-2,3-dihydro-1-benzofuran-3-yl]-6-methoxy-5-(4-methyl-1H-imidazol-1-yl)pyridine-2-carboxamide], the IC50 under setting [1] amounted to 0.373 µM.

`COc1nc(C(=O)NCC2(c3cccc(C)c3)CCC2)cnc1-n1cnc(C)c1` [Example 10, 6-methoxy-5-(4-methyl-1H-imidazol-1-yl)-N-{[1-(3-methylphenyl)cyclobutyl]-methyl}pyrazine-2-carboxamide]: the half-maximal inhibitory concentration (IC50) under setting [2] was 0.827 µM. Regarding `COc1nc(C(=O)N[C@@H]2CCc3ccc(Cl)cc32)ccc1-n1cnc(C)c1` [Example 39, N-[(1R)-6-chloro-2,3-dihydro-1H-inden-1-yl]-6-methoxy-5-(4-methyl-1H-imidazol-1-yl)pyridine-2-carboxamide], the IC50 under setting [2] stood at 1.34 µM.
